Patent US20260327244A1, “PYRIDO[4,3-D]PYRIMIDINE COMPOUNDS” (Pfizer Inc., priority 2022, published 2026)

Key:
G12C KRAS (aa2-184) = G12C KRAS (aa2-184) (Homo sapiens, UniProt P01116, G12C); assay: biochemical
Experimental: (§1) SPR assay was used to measure the kinetic binding constant (KD) of Examples of the present invention.
(§2) The binding affinity and kinetics of Examples of the present invention were measured by Surface Plasmon Resonance (SPR) using Biacore 8K or 8K+ (Cytiva, Marlborough, MA) instruments. Recombinant, C-terminal site-specific biotinylated, wild-type (WT) KRAS (aa1-185), G12D KRAS (aa1-185), G12C KRAS (aa2-184), G12V KRAS (aa2-184), WT HRAS (aa2-184) and WT NRAS (aa2-185) proteins purified in presence of 1 μM GDP were used in these experiments. Binding measurements were performed parallelly in sets of either WT/G12D/G12C/G12V KRAS or WT K/H/N RAS proteins.
(§3) Biacore instrument was desorbed and docked with a Series S Sensor Chip SA. The proteins were diluted to 50 μg/mL with the assay buffer (50 mM HEPES, 150 mM NaCl, 10 μM GDP, 5 mM MgCl2, 0.5 mM TCEP, 5% glycerol, 0.02% Tween-20, 2% DMSO, pH 7.2) and immobilized at a flow rate of 3 μL/min at 10° C. with a contact time of 15 min. to capture ~3000-4000 RUs of proteins on the surface. The functionalized surface was then equilibrated with assay buffer for approximately 1 hour. Un-functionalized SA surfaces with no immobilized protein served as reference for binding kinetic analysis. Compound binding kinetics were measured in either multi-cycle or single-cycle kinetic format.
(§4) A 2-fold, 10-point serial dilution of test compounds was set-up in a 96-well microplate (Greiner; Cat #650101) with a top concentration of either 10 μM or 100 μM. Binding kinetics was measured at 10° C. by injecting serial dilution of compounds onto both reference and RAS immobilized channels at a flow rate of 100 μL/min and association time of 90 seconds. Compound dissociation was monitored for at least 400 seconds during each cycle. No additional regeneration was used. DMSO calibration curve was obtained before and after compound analysis by injecting 0-4% of DMSO in assay buffer. A suitable compound with known affinity and kinetics was tested once in every experiment as a positive control to assess activity of the captured protein on the surface.
(§5) A 3-fold, 6-point serial dilution of compounds was set-up in a deep 96-well microplate (Greiner Bio; Cat #780201) with the highest concentration of 1 μM (concentration range: 0.004-1 μM). Binding kinetics was measured at 10° C. by injecting serial dilutions of compounds in increasing order onto reference as well as RAS immobilized channels at a flow rate of 100 μL/min and association time of 120 seconds. Compound dissociation was monitored for at least 3600 seconds. Two buffer blanks were also run in a single-cycle kinetics format before the compound run for double referencing. No additional regeneration was used. DMSO calibration curve was obtained before and after compound analysis by injecting 0-4% of DMSO in the assay buffer. A suitable compound with known affinity and kinetics was tested once in every experiment as a positive control to assess activity of the captured protein on the surface.
(§6) Both MCK and SCK data were processed and analyzed using Biacore Insight evaluation software (Cytiva, Marlborough, MA)). […] The adequateness of the fit was judged by c^2 values and the randomness of residue distribution.
(§7) A geometric mean of binding constant KD was provided when an Example was tested more than once (n is testing replicate number).

[1] = target: T1, wild-type (WT) KRAS (aa1-185) (Homo sapiens, UniProt P01116); assay: KRAS Surface Plasma Resonance (SPR) binding assay, WT KRAS; details: SPR at 10 °C, geometric mean when tested more than once
T1 construct: wild-type (WT) KRAS (aa1-185)
Text: No additional regeneration was used.
Compound dissociation was monitored for at least 3600 seconds. […] No additional regeneration was used.

G12V KRAS (aa2-184) = G12V KRAS (aa2-184) (Homo sapiens, UniProt P01116, G12V); assay: biochemical
Sequence of G12V KRAS (aa2-184) (P01116 2-184 isoform P01116-2 G12V): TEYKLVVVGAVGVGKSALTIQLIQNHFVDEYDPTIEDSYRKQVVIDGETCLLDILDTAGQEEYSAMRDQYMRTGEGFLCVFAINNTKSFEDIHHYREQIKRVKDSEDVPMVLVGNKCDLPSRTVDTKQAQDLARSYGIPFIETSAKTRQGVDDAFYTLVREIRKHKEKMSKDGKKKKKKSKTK
Experimental: as §1, §2, §3, §4, §5, §6, §7

G12D KRAS (aa1-185) = G12D KRAS (aa1-185) (Homo sapiens, UniProt P01116, G12D); assay: biochemical;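 also: surface plasmon resonance at 10 °C, KRAS captured on a streptavidin chip in GDP-containing buffer, compound dilution series injected, blank streptavidin surface as reference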
Sequence of G12D KRAS (aa1-185) (P01116 1-185 isoform P01116-2 G12D): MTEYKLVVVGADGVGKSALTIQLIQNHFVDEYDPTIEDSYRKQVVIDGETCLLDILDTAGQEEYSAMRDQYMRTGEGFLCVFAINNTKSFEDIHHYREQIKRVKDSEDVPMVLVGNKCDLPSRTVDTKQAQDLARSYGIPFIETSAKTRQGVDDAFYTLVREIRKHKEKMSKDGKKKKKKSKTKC
Experimental: as §1, §2, §3, §4, §5, §6, §7

Sequence of G12C KRAS (aa2-184) (P01116 2-184 isoform P01116-2 G12C): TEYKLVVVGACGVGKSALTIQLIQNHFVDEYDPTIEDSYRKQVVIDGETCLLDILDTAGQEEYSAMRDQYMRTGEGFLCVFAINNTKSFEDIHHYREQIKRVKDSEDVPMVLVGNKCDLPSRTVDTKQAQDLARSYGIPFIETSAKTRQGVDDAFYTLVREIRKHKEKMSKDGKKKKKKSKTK
T1 sequence (P01116 1-185 isoform P01116-2): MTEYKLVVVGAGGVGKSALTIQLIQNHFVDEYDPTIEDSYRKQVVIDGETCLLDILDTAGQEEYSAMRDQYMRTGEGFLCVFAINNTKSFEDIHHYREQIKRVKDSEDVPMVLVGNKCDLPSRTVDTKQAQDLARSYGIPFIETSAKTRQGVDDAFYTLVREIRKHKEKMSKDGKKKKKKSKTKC

| Structure (SMILES) | Kd (G12C KRAS (aa2-184)) [nM] | Kd [1] [nM] | Kd (G12V KRAS (aa2-184)) [nM] | Kd (G12D KRAS (aa1-185)) [nM] |
| --- | --- | --- | --- | --- |
| C#Cc1cccc2cc(O)cc(-c3ncc4c(N5C[C@H]6C[C@@H](O)[C@@H](C5)O6)nc(OC[C@@]56CCCN5C[C@H](F)C6)nc4c3F)c12 (relative stereo) [Example 18, (1R*,5R*,6R*)-3-[7-(8-ethynyl-3-hydroxynaphthalen-1-yl)-8-fluoro-2-{[(2R,7aS)-2-fluorotetrahydro-1H-pyrrolizin-7a(5H)-yl]methoxy}pyrido[4,3-d]pyrimidin-4-yl]-8-oxa-3-azabicyclo[3.2.1]octan-6-ol] | 0.759 | 0.092 | 0.13 | 0.214 |
| Oc1cc(-c2ncc3c(N4C[C@@H]5C[C@H](O)[C@@H]5C4)nc(OC[C@@]45CCCN4C[C@H](F)C5)nc3c2F)c2c(Cl)cccc2c1 (relative stereo) [Example 22, (1R*,5S*,6S*)-3-[7-(8-chloro-3-hydroxynaphthalen-1-yl)-8-fluoro-2-{[(2R,7aS)-2-fluorotetrahydro-1H-pyrrolizin-7a(5H)-yl]methoxy}pyrido[4,3-d]pyrimidin-4-yl]-3-azabicyclo[3.2.0]heptan-6-ol] | 42.4 | 11.9 | 46.7 | 36.9 |
| C#Cc1cccc2cc(O)cc(-c3ncc4c(N5CCC[C@@H](CC#N)C5)nc(OC[C@@]56CCCN5C[C@H](F)C6)nc4c3F)c12 [Example 1, {(3S)-1-[7-(8-ethynyl-3-hydroxynaphthalen-1-yl)-8-fluoro-2-{[(2R,7aS)-2-fluorotetrahydro-1H-pyrrolizin-7a(5H)-yl]methoxy}pyrido[4,3-d]pyrimidin-4-yl]piperidin-3-yl}acetonitrile] | 1.23 | 0.273 | 0.454 | 0.268 |
| C#Cc1cccc2cc(O)cc(-c3ncc4c(N5C[C@H]6CC[C@@H](C5)O6)nc(OC[C@@]56CCCN5C[C@H](F)C6)nc4c3F)c12 [Example 2, 5-ethynyl-4-(8-fluoro-2-{[(2R,7aS)-2-fluorotetrahydro-1H-pyrrolizin-7a(5H)-yl]methoxy}-4-[(1R,5S)-8-oxa-3-azabicyclo[3.2.1]octan-3-yl]pyrido[4,3-d]pyrimidin-7-yl)naphthalen-2-ol] | 1.64 | 0.422 | 0.515 | 1.89 |
| C#Cc1cccc2cc(O)cc(-c3ncc4c(N5CCN(C(C)=O)[C@@H](CC#N)C5)nc(OC[C@@]56CCCN5C[C@H](F)C6)nc4c3F)c12 [Example 4, {(2S)-1-acetyl-4-[7-(8-ethynyl-3-hydroxynaphthalen-1-yl)-8-fluoro-2-{[(2R,7aS)-2-fluorotetrahydro-1H-pyrrolizin-7a(5H)-yl]methoxy}pyrido[4,3-d]pyrimidin-4-yl]piperazin-2-yl}acetonitrile] | 1.94 | 0.308 | 3.69 | 14.1 |
| C#Cc1cccc2cc(O)cc(-c3ncc4c(N5CC[C@@H](CC#N)C5)nc(OC[C@@]56CCCN5C[C@H](F)C6)nc4c3F)c12 [Example 6, {(3S)-1-[7-(8-ethynyl-3-hydroxynaphthalen-1-yl)-8-fluoro-2-{[(2R,7aS)-2-fluorotetrahydro-1H-pyrrolizin-7a(5H)-yl]methoxy}pyrido[4,3-d]pyrimidin-4-yl]pyrrolidin-3-yl}acetonitrile] | 2.67 | 1.89 | 1.35 | 2.43 |
| N#C[C@@H]1CCCN1c1nc(OC[C@@]23CCCN2C[C@H](F)C3)nc2c(F)c(-c3cc(O)cc4ccc(F)c(F)c34)ncc12 [Example 11, (2S)-1-[7-(7,8-difluoro-3-hydroxynaphthalen-1-yl)-8-fluoro-2-{[(2R,7aS)-2-fluorotetrahydro-1H-pyrrolizin-7a(5H)-yl]methoxy}pyrido[4,3-d]pyrimidin-4-yl]pyrrolidine-2-carbonitrile] | 38.9 | 19.7 | 98.7 | 23.6 |

Next, values leading:

| Kd (G12C KRAS (aa2-184)) [nM] | Kd [1] [nM] | Kd (G12V KRAS (aa2-184)) [nM] | Kd (G12D KRAS (aa1-185)) [nM] | Structure (SMILES) |
| --- | --- | --- | --- | --- |
| 8.33 | 2.55 | 6.71 | 11.4 | C#Cc1cccc2cc(O)cc(-c3ncc4c(N5C[C@H](CC#N)[C@@H](F)C5)nc(OC[C@@]56CCCN5C[C@H](F)C6)nc4c3F)c12 (mixture of isomers) [Example 7, {(3SR,4RS)-1-[7-(8-ethynyl-3-hydroxynaphthalen-1-yl)-8-fluoro-2-{[(2R,7aS)-2-fluorotetrahydro-1H-pyrrolizin-7a(5H)-yl]methoxy}pyrido[4,3-d]pyrimidin-4-yl]-4-fluoropyrrolidin-3-yl}acetonitrile] |
| 1.9 | 1.76 | 1.46 | 1.01 | Oc1cc(-c2ncc3c(N4C[C@H]5C[C@@H](O)[C@H]5C4)nc(OC[C@@]45CCCN4C[C@H](F)C5)nc3c2F)c2c(Cl)cccc2c1 (relative stereo) [Example 21, (1S*,5R*,6R*)-3-[7-(8-chloro-3-hydroxynaphthalen-1-yl)-8-fluoro-2-{[(2R,7aS)-2-fluorotetrahydro-1H-pyrrolizin-7a(5H)-yl]methoxy}pyrido[4,3-d]pyrimidin-4-yl]-3-azabicyclo[3.2.0]heptan-6-ol] |
| 84.7 | 27.9 | 91.7 | 78.3 | C#Cc1cccc2cc(O)cc(-c3ncc4c(N5C[C@@H]6C[C@H](O)[C@H](C5)O6)nc(OC[C@@]56CCCN5C[C@H](F)C6)nc4c3F)c12 (single isomer, unassigned) [Example 19, (1S*,5S*,6S*)-3-[7-(8-ethynyl-3-hydroxynaphthalen-1-yl)-8-fluoro-2-{[(2R,7aS)-2-fluorotetrahydro-1H-pyrrolizin-7a(5H)-yl]methoxy}pyrido[4,3-d]pyrimidin-4-yl]-8-oxa-3-azabicyclo[3.2.1]octan-6-ol] |
| 11.4 | 2.89 | 22.1 | 10.5 | C#Cc1cccc2cc(O)cc(-c3ncc4c(N5CC[C@@](C)(CC#N)C5)nc(OC[C@@]56CCCN5C[C@H](F)C6)nc4c3F)c12 [Example 5, {(3S)-1-[7-(8-ethynyl-3-hydroxynaphthalen-1-yl)-8-fluoro-2-{[(2R,7aS)-2-fluorotetrahydro-1H-pyrrolizin-7a(5H)-yl]methoxy}pyrido[4,3-d]pyrimidin-4-yl]-3-methylpyrrolidin-3-yl}acetonitrile] |
| 1.54 | 0.398 | 11.5 | 1.69 | C#Cc1cccc2cc(O)cc(-c3ncc4c(N5CCC[C@@](C)(CC#N)C5)nc(OC[C@@]56CCCN5C[C@H](F)C6)nc4c3F)c12 [Example 8, {(3S)-1-[7-(8-ethynyl-3-hydroxynaphthalen-1-yl)-8-fluoro-2-{[(2R,7aS)-2-fluorotetrahydro-1H-pyrrolizin-7a(5H)-yl]methoxy}pyrido[4,3-d]pyrimidin-4-yl]-3-methylpiperidin-3-yl}acetonitrile] |
| 0.447 | 0.019 | 0.308 | 0.099 | C#Cc1cccc2cc(O)cc(-c3ncc4c(N5C[C@@H]6C[C@H](C5)[C@H](O)C6)nc(OC[C@@]56CCCN5C[C@H](F)C6)nc4c3F)c12 [Example 9, (1R,5R,6R)-3-[7-(8-ethynyl-3-hydroxynaphthalen-1-yl)-8-fluoro-2-{[(2R,7aS)-2-fluorotetrahydro-1H-pyrrolizin-7a(5H)-yl]methoxy}pyrido[4,3-d]pyrimidin-4-yl]-3-azabicyclo[3.2.1]octan-6-ol] |
